Results taken from PubChem BioAssay (NCI).
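A five-concentration, 48-hour dose response in 96-well plates underlies each endpoint, interpolated linearly between surrounding concentrations. GI50: concentration for 50% inhibition of growth. TGI: concentration producing complete growth inhibition.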

Columns and labels:
Test in all cases: NCI tumour cell line growth inhibition, 48 h
[1] = test system: RXF 393 renal
[2] = test system: SK-OV-3 ovarian
[3] = test system: HL-60(TB) leukemia
[4] = test system: HOP-62 NSCLC
[5] = test system: UO-31 renal
[6] = test system: SK-MEL-28 melanoma
[7] = test system: RPMI-8226 leukemia
[8] = test system: SF-539 CNS
[9] = test system: KM12 colon
[10] = test system: OVCAR-5 ovarian

Row | Structure (SMILES) | TGI [1] [µM] | TGI [2] [µM] | TGI [3] [µM] | TGI [4] [µM] | TGI [5] [µM] | TGI [6] [µM] | TGI [7] [µM] | TGI [8] [µM] | TGI [9] [µM] | TGI [10] [µM] | GI50 [1] [µM] | GI50 [2] [µM] | GI50 [3] [µM] | GI50 [4] [µM] | GI50 [5] [µM] | GI50 [6] [µM] | GI50 [7] [µM] | GI50 [10] [µM] | GI50 [8] [µM] | GI50 [9] [µM]
1 | CC1C=CC(=O)C(n2cc(F)c(=O)[nH]c2=O)O1 (stereo not drawn) | 37.8 | 61 | 47.9 | 45.7 | 30 | 46.8 | 38.7 | 31.2 |  |  |  |  |  |  |  |  |  |  |  | 
2 | CC12CCC[C@@](C)(C(=O)OC3OC(CO)C(O)C(O)C3O)[C@H]1CCC13CC4CC(OC4(CO)[C@H]1O)[C@@H]23 (stereo partly drawn) | > 100 | > 100 |  | > 100 | > 100 | > 100 | > 100 | > 100 | > 100 | > 100 |  |  |  |  |  |  |  |  |  | 
3 | CCCCCCCC/C=C\CCCCCCCC(=O)NCCN(CCN)C(=O)CCCCCCC/C=C\CCCCCCCC |  | > 100 | > 100 | > 100 | > 100 | > 100 | > 100 |  |  | > 100 |  |  |  |  |  |  |  |  |  | 
4 | CCCc1nc2c(C)cc(-c3nc4ccccc4n3C)cc2n1Cc1ccc(-c2ccccc2C(=O)O)cc1 | 82.2 | > 100 | 77.4 | > 100 | 51.5 | > 100 | 95.9 | > 100 |  | > 100 | 22.4 | > 100 | 28.8 | 43.5 | 19.3 | 25.7 | 17.3 | > 100 | 46.5 | 
5 | CCOC(=O)c1sc(=S)c2c(C(=O)OCC)c(C(=O)OCC)sc2c1C(=O)OCC | 39.4 | > 100 |  | 33.4 | 30.9 | 54.7 | 28 | 36.1 | 44.5 | 35.7 | 13 | 43.3 |  | 17.6 | 15.1 | 21.3 | 7.88 | 17.6 | 18.9 | 18.4
6 | CC1=C(C(=O)Nc2ccc(Cl)c(Cl)c2)C(c2ccco2)C(C(=O)Nc2ccc(Cl)c(Cl)c2)=C(C)N1 |  | 28.5 | 42.4 | 27.6 | 21.7 | 25.3 | 38.4 | 27.7 | 27.3 | 29.3 |  |  |  |  |  |  |  |  |  | 
7 | COc1ccc2c(c1)CC[C@@H]1[C@@H]2CC[C@]2(C)C(c3ccco3)=C(C=O)C[C@@H]12 | 27.6 | 77.7 |  | 46.2 | > 100 | > 100 | 32.7 | 40.6 | 12.2 | 94.1 | 0.484 | 28.9 |  | 20.9 | 31 | 15.8 | 3.89 | 30.5 | 20 | 3.35
8 | CC1=C(C(=O)NCc2ccccc2)C(c2ccccc2[N+](=O)[O-])C(C(=O)NCc2ccccc2)=C(C)N1 | 23.4 |  | 13.2 | 35.1 | 27 | 26 |  | 25.8 | 23.1 | 36.6 |  |  |  |  |  |  |  |  |  | 
9 | Nc1ccc(/C=N/Nc2ccnc3c(N)cccc23)c2cccnc12 |  | 3.3 |  | 3.53 |  | 3.51 |  | 3.15 | 3.49 | 3.44 |  | 1.82 |  | 1.81 |  | 1.87 |  | 1.86 | 1.74 | 1.7
10 | N#CCCN(c1ccc(-c2nnc(NC(=O)CNNC(=O)CC(=O)Nc3ccccc3)s2)cc1)S(=O)(=O)c1ccccc1 |  | > 100 | > 100 | > 100 | > 100 | > 100 | > 100 | > 100 | > 100 | > 100 |  |  |  |  |  |  |  |  |  | 
11 | O=[N+]([O-])c1nccn1COCCF |  | > 100 | > 100 | > 100 | > 100 | > 100 | > 100 | > 100 | > 100 | > 100 |  |  |  |  |  |  |  |  |  | 
12 | COc1ccc([C@H]2CC(=O)NCCCCN2)cc1 | > 100 | > 100 |  | > 100 | > 100 | > 100 | > 100 | > 100 | > 100 | > 100 |  |  |  |  |  |  |  |  |  | 
13 | C=C1C(=O)O[C@H]2[C@H]1CC/C(COC(=O)NCc1c[nH]c3ccc(Cl)cc13)=C\CC[C@@]1(C)O[C@@H]21 | 2.76 | 18.9 |  | 3.74 | 2.75 | 3.29 | 3.51 | 3.04 | 6.28 | 4.01 | 1.37 | 5.75 |  | 1.72 | 1.43 | 1.69 | 0.836 | 1.77 | 1.58 | 2.37
14 | COC(=O)[C@]1(C)CCC[C@@]2(C)C1CCC1=CC3(C(C)C)CCC12OO3 (stereo partly drawn) |  | > 100 | 37.8 | > 100 | > 100 |  | > 100 | > 100 | > 100 | > 100 |  |  |  |  |  |  |  |  |  | 
15 | Cc1[nH]c(=O)[nH]c(=O)c1CO | > 100 | > 100 | > 100 | > 100 | > 100 | > 100 |  | > 100 | > 100 | > 100 | > 100 | > 100 | > 100 | > 100 | > 100 | > 100 |  | > 100 | > 100 | > 100
16 | Cc1ccccc1CN1CC=c2ccccc2=N1 |  | > 100 |  | > 100 | > 100 | > 100 | > 100 | > 100 | > 100 | > 100 |  |  |  |  |  |  |  |  |  | 
17 | C1=Cc2nc1c(-c1ccncc1)c1ccc([n-]1)c(-c1ccncc1)c1nc(c(-c3ccncc3)c3ccc([n-]3)c2-c2ccncc2)C=C1.[Zn+2] |  | > 100 | > 100 | > 100 | > 100 | > 100 | > 100 | > 100 | > 100 | > 100 |  |  |  |  |  |  |  |  |  | 
18 | COc1ccc2nc3ccccc3c(NCCCCCCN(C)CCCl)c2c1 | 1.23 | 2.04 |  | 3.03 |  | 2.26 | 1.19 | 2.11 | 1.44 | 3.25 |  |  |  |  |  |  |  |  |  | 
19 | CC(C)OP(=O)(OC(C)C)C(=Nc1ccccc1)NNc1ccc([N+](=O)[O-])cc1 |  |  | 46.2 | > 100 | > 100 | 89.5 | 70.4 | > 100 | 43.6 | > 100 |  |  |  |  |  |  |  |  |  | 
20 | NC(=S)N/N=C1/C(=O)N(c2ccc(Cl)cc2Cl)C(=O)C(=O)C1c1nc2ccccc2s1 (stereo not drawn) | > 100 | > 100 |  | > 100 | > 100 | > 100 | > 100 | > 100 | > 100 | > 100 |  |  |  |  |  |  |  |  |  | 
21 | CN(C)CC1(C)CC/C(=C\c2ccccc2)C1=O (stereo not drawn) | > 100 |  |  | > 100 | > 100 | > 100 | 63.2 | > 100 | > 100 | > 100 |  |  |  |  |  |  |  |  |  | 
22 | OCC12C3C4C1C1C2C3C41CO (stereo not drawn) |  | > 100 |  | > 100 | > 100 | > 100 | > 100 | > 100 |  | > 100 |  |  |  |  |  |  |  |  |  | 
23 | CCC(C)C(NC(=O)C1CCCN1C(=O)C(NC(=O)C(C)N)C(C)C)C(N)=O (stereo not drawn) | > 100 | > 100 | > 100 | > 100 | > 100 | > 100 |  | > 100 | > 100 |  | > 100 | > 100 | > 100 | > 100 | > 100 | > 100 |  |  |  | > 100
24 | O=C(Nc1c(O)[nH]c(=S)[nH]c1=O)c1ccc2ccccc2n1 |  | > 100 | > 100 | > 100 | > 100 | > 100 | > 100 | > 100 |  |  |  |  |  |  |  |  |  |  |  | 
25 | Cc1ccc(Cl)c(NC(=O)C(=O)C(C(=O)c2ccncc2)C2OC(=O)c3ccccc32)c1 (stereo not drawn) | > 100 | > 100 | > 100 | > 100 | > 100 | > 100 | > 100 | > 100 |  |  |  |  |  |  |  |  |  |  |  | 
26 | O=c1c2ccccc2c2nc3ccccc3nc2n1C1CCCCC1 | > 100 | > 100 |  |  | > 100 | > 100 | > 100 | > 100 | > 100 | > 100 |  |  |  |  |  |  |  |  |  | 
27 | Cc1cc(Cl)ccc1N=C1NC(=O)C(CC(=O)Nc2ccc(Cl)cc2Cl)S1 (stereo not drawn) |  | > 100 |  | > 100 | > 100 | > 100 | > 100 | > 100 | > 100 | > 100 |  |  |  |  |  |  |  |  |  | 
28 | Cc1ccc(C)c(NC(=O)CC/C(=N\NC(=O)C(N)=O)C(C)C(=O)c2ccc(O)cc2)c1 (stereo not drawn) | > 100 | > 100 | > 100 | > 100 | > 100 | > 100 |  | > 100 | > 100 | > 100 |  |  |  |  |  |  |  |  |  | 
29 | COc1ccc2c(c1)CCC1C2CC[C@]2(C)/C(=N/OC(=O)Cc3ccccc3)CCC12 (stereo partly drawn) | 47.9 | 72.1 |  | 31.6 | 43.8 | 78.1 | 52.5 | 42.8 | 30.4 | > 100 | 23.3 | 28.7 |  | 17.2 | 19.2 | 24.1 | 12.4 | 46.6 | 21.4 | 15
